Data reported in paper PMC10223608, “Structural Congeners of Izenamides Responsible for Cathepsin D Inhibition: Insights from Synthesis-Derived Elucidation” (Marine Drugs, 2023).

Experiments:
[1] = test system: CTSD; settings: natural izenamides; cited from earlier work
Excerpt: In 2018, izenamides A-C (1–3), which are linear depsipeptides, were first isolated from the marine cyanobacterium 1605-5 by Suenaga et al (Figure 1). Izenamides A (1) and B (2) contain four amino acids (Pro-O-Me, N-Me-Phe, Ala, and Ile); two α-hydroxy acids (two valic acids for 1, and one valic acid and one isoleucic acid for 2); and a γ-amino-β-hydroxy acid moiety known as statine [(3S,4S)-4-amino-3-hydroxy-6-methylheptanoic acid, Sta]. Izenamide C (3) also contains Pro-O-Me, N-Me-Phe, Ile, and valic acid; however, it contains Gly in place of Ala in 1 and 2, as well as isoleucic acid. ...

[2] = target: T1, Human liver cathepsin D (Homo sapiens, UniProt P07339); test: Cathepsin D (CTSD) human pepsin aspartic peptidase enzymatic assay (Eurofins Panlabs); type: biochemical; settings: for Inhibition of CTSD (%): 190 mU/mL enzyme, modified acetate buffer pH 4.0, 15 min preincubation at 37 °C, 20 μM MOCAc substrate for 10 min, spectrofluorimetric read-out, duplicate, N.A. = not active
T1 construct: tissue Eurofins Panlabs Discovery Services (ran the assay); host or cells: human liver
Method: The CTSD-inhibition assay was performed at Eurofins Panlabs Discovery Services by measuring the percentage inhibition at concentrations of 0.5 and 1.0 μM (Table 1).
Human liver cathepsin D was used for the enzymatic essay. Test compound or vehicle was preincubated with 190 mU/mL enzyme in modified acetate buffer pH 4.0 for 15 minutes at 37 °C. The reaction was initiated by addition of 20 μM MOCAc-[…]Dnp)-D-Arg NH2 for another 10-minute incubation period. Determination of the amount of MOCAc formed was read spectrofluorimetrically at 340 nm/400. Compounds were screened at 0.5 and 1.0 μM. Cathepsin-D-Human-Pepsin-Aspartic-Peptidase-Enzymatic-Assay-Panlabs (eurofinsdiscovery.com, accessed on 22 February 2022).

T1 sequence (P07339 65-412): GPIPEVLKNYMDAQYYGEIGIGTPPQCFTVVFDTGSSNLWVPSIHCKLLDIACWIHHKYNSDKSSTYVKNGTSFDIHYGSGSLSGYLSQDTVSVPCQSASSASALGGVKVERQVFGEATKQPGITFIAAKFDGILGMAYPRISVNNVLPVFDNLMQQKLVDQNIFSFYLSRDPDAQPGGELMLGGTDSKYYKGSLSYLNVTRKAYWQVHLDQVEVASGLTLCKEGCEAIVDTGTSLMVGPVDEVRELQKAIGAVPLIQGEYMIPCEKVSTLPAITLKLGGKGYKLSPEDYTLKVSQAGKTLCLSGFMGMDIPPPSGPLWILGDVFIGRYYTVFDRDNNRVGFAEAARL

Inhibition of CTSD (%) ([2]; 0.5 μM compound)	Inhibition of CTSD (%) ([2]; 1.0 μM compound)	CTSD-inhibitory activity (in words) ([2]; screened at 0.5 and 1.0 μM)	Substance	inhibitory activities against CTSD in vitro (in words) [1]
10.13	15.55		izenamide A [Compound 1]	moderate inhibitory activities
26.99	36.07		Sta-incorporated-izenamide C [Compound 7]	
37.29	40.96		18-epi-izenamide B [Compound 8]	
		no CTSD inhibition	izenamide C [Compound 3]	does not show CTSD inhibition
8.12	14.76		izenamide B [Compound 2]	moderate inhibitory activities
